This note sets out measurements from patent publication US8710198B2, “Caprazene as a novel compound and derivatives thereof, and caprazol as a novel compound and derivatives thereof” (Meiji Seika Pharma Co., Ltd., priority 2003, dated 2014).

Type in all cases: cell-based
Assay [1] has as its system Staphylococcus aureus FDA209P. In words: Minimum growth inhibitory concentration on agar culture medium by serial dilution method (Japanese Society of Chemotherapy). On the procedure: (§1) Minimum growth inhibitory concentrations (mcg/ml) of caprazene-1′″-amide derivatives of the formula (II) against some of microorganisms were measured on an agar culture medium by a serial dilution method according to the standard method as provided by Japanese Society of Chemotherapy. For the cultivation of Mycobacterium smegmatis (one of […]), however, there was used an agar culture medium with the addition of 1% glycerine (the same applies to in the following tests).
(§2) Minimum growth inhibitory concentrations (mcg/ml) of some of the caprazene-1′″-ester derivative of the formula (III) against some of microorganisms were measured on an agar culture medium by a serial dilution method according to the standard method as provided by Japanese Society of Chemotherapy.
(§3) Minimum growth inhibitory concentrations (mcg/ml) of some of the caprazol-1′″-amide derivative of the formula (V) against a variety of microorganisms were measured on an agar medium by a serial dilution method according to the standard method as provided by Japanese Society of Chemotherapy.
(§4) Minimum growth inhibitory concentrations (mcg/ml) of some of the caprazol-1′″-amide-3′″-ester derivative of the formula (VI) against a variety of microorganisms were measured on an agar medium by a serial dilution method according to the standard method as provided by Japanese Society of Chemotherapy.
(§5) Minimum growth inhibitory concentrations (mcg/ml) of some of the caprazol-3′″-ester derivative or caprazol-1′″-ester-3′″-ester derivative of the formula (VII) against a variety of microorganisms were measured on an agar medium by a serial dilution method according to the standard method as provided by Japanese Society of Chemotherapy.
(§6) Minimum growth inhibitory concentrations (mcg/ml) of some of the derivative of the formula (VIII) against a variety of microorganisms were measured on an agar medium by a serial dilution method according to the standard method as provided by Japanese Society of Chemotherapy.

The subject of another assay is Micrococcus luteus FDA16. The assay is described as above. Here is the method: as §1, §2, §3, §4, §5, §6
Assay [2] has as its system Mycobacterium smegmatis ATCC607. In words: Minimum growth inhibitory concentration on agar culture medium with 1% glycerine by serial dilution method. The following applies: agar culture medium with the addition of 1% glycerine. On the procedure:
as §1, §2, §3, §4, §5

Turning to `CCCCCCCNC(=O)C1=CCN(C)C(C(OC2OC(CN)C(O)C2O)C2OC(n3ccc(=O)[nH]c3=O)C(O)C2O)C(=O)N1C` (stereo not drawn) [Compound II-B], the “Minimum growth inhibitory concentration (mcg/ml) against bacteria Staphylococcus aureus FDA209P” value in assay [1] was determined as 25 µg/mL. Besides, the “Minimum growth inhibitory concentration (mcg/ml) against bacteria Micrococcus luteus FDA16” value with Micrococcus luteus FDA16 was 1.56 µg/mL. Also, in assay [2], the “Minimum growth inhibitory concentration (mcg/ml) against bacteria Mycobacterium smegmatis ATCC607” value was 25 µg/mL.

With `CCCCCCCCCCNC(=O)C1C(OC(=O)CCCCCCCCCC)CN(C)C(C(OC2OC(CN)C(O)C2O)C2OC(n3ccc(=O)[nH]c3=O)C(O)C2O)C(=O)N1C` (stereo not drawn) [Compound VI-E], in assay [1], the “Minimum growth inhibitory concentration (mcg/ml) against bacteria Staphylococcus aureus FDA209P” value was found to be 12.5 µg/mL. Moreover, the “Minimum growth inhibitory concentration (mcg/ml) against bacteria Micrococcus luteus FDA16” value in the assay on Micrococcus luteus FDA16 was determined as 6.25 µg/mL. The “Minimum growth inhibitory concentration (mcg/ml) against bacteria Mycobacterium smegmatis ATCC607” value in assay [2] came out at 6.25 µg/mL.

As for `CCCCCCCCCCCCCCCNC(=O)C1=CCN(C)C(C(OC2OC(CNC(=O)OC(C)(C)C)C(O)C2O)C2OC(n3ccc(=O)[nH]c3=O)C(O)C2O)C(=O)N1C` (stereo not drawn) [Compound II-J-N-Boc], the “Minimum growth inhibitory concentration (mcg/ml) against bacteria Staphylococcus aureus FDA209P” value in assay [1] is 12.5 µg/mL. In the assay with Micrococcus luteus FDA16, the “Minimum growth inhibitory concentration (mcg/ml) against bacteria Micrococcus luteus FDA16” value came out at 12.5 µg/mL. In addition, in assay [2], the “Minimum growth inhibitory concentration (mcg/ml) against bacteria Mycobacterium smegmatis ATCC607” value was 25 µg/mL.

With `CCCCCCCCC=CCCCCCCCC(=O)OC1CN(C)C(C(OC2OC(CN)C(O)C2O)C2OC(n3ccc(=O)[nH]c3=O)C(O)C2O)C(=O)N(C)C1C(=O)O` (stereo not drawn) [Compound VII-R], the “Minimum growth inhibitory concentration (mcg/ml) against bacteria Staphylococcus aureus FDA209P” value in assay [1] came out at 1.56 µg/mL. The “Minimum growth inhibitory concentration (mcg/ml) against bacteria Micrococcus luteus FDA16” value in the assay on Micrococcus luteus FDA16 came out at 3.13 µg/mL. In addition, the “Minimum growth inhibitory concentration (mcg/ml) against bacteria Mycobacterium smegmatis ATCC607” value in assay [2] was 6.25 µg/mL.

In the case of `CCCCCCCCNC(=O)C1C(O)CN(C)C(C(OC2OC(CN)C(O)C2O)C2OC(n3ccc(=O)[nH]c3=O)C(O)C2O)C(=O)N1C` (stereo not drawn) [Compound V-C], the “Minimum growth inhibitory concentration (mcg/ml) against bacteria Staphylococcus aureus FDA209P” value in assay [1] amounted to 25 µg/mL. The “Minimum growth inhibitory concentration (mcg/ml) against bacteria Micrococcus luteus FDA16” value with Micrococcus luteus FDA16 turned out to be 25 µg/mL. For the same compound, the “Minimum growth inhibitory concentration (mcg/ml) against bacteria Mycobacterium smegmatis ATCC607” value in assay [2] amounted to 6.25 µg/mL.

Regarding `CCCCCCCCCc1ccc(NC(=O)C2=CCN(C)C(C(OC3OC(CN)C(O)C3O)C3OC(n4ccc(=O)[nH]c4=O)C(O)C3O)C(=O)N2C)cc1` (stereo not drawn) [Compound II-9], in assay [1], the “Minimum growth inhibitory concentration (mcg/ml) against bacteria Staphylococcus aureus FDA209P” value was 3.13 µg/mL. Besides, the “Minimum growth inhibitory concentration (mcg/ml) against bacteria Micrococcus luteus FDA16” value in the assay with Micrococcus luteus FDA16 stood at 0.39 µg/mL. Moreover, the “Minimum growth inhibitory concentration (mcg/ml) against bacteria Mycobacterium smegmatis ATCC607” value in assay [2] is 1.56 µg/mL.

Turning to `CCCCCCCCCCCCc1ccc(NC(=O)C2=CCN(C)C(C(OC3OC(CN)C(O)C3O)C3OC(n4ccc(=O)[nH]c4=O)C(O)C3O)C(=O)N2C)cc1` (stereo not drawn) [Compound II-12], the “Minimum growth inhibitory concentration (mcg/ml) against bacteria Staphylococcus aureus FDA209P” value in assay [1] came out at 3.13 µg/mL. Also, the “Minimum growth inhibitory concentration (mcg/ml) against bacteria Micrococcus luteus FDA16” value in the assay on Micrococcus luteus FDA16 turned out to be 0.78 µg/mL. In assay [2], the “Minimum growth inhibitory concentration (mcg/ml) against bacteria Mycobacterium smegmatis ATCC607” value amounted to 6.25 µg/mL.

As to `CCCCCCCc1ccc(NC(=O)C2=CCN(C)C(C(OC3OC(CN)C(O)C3O)C3OC(n4ccc(=O)[nH]c4=O)C(O)C3O)C(=O)N2C)cc1` (stereo not drawn) [Compound II-7], the “Minimum growth inhibitory concentration (mcg/ml) against bacteria Staphylococcus aureus FDA209P” value in assay [1] was determined as 1.56 µg/mL. In addition, the “Minimum growth inhibitory concentration (mcg/ml) against bacteria Micrococcus luteus FDA16” value in the assay on Micrococcus luteus FDA16 was less than 0.20 µg/mL. For the same compound, the “Minimum growth inhibitory concentration (mcg/ml) against bacteria Mycobacterium smegmatis ATCC607” value in assay [2] was less than 0.20 µg/mL.

On to `CCCCCCCCCOc1ccc(NC(=O)C2=CCN(C)C(C(OC3OC(CN)C(O)C3O)C3OC(n4ccc(=O)[nH]c4=O)C(O)C3O)C(=O)N2C)cc1` (stereo not drawn) [Compound II-23], for which the “Minimum growth inhibitory concentration (mcg/ml) against bacteria Staphylococcus aureus FDA209P” value in assay [1] was 1.56 µg/mL. Moreover, in the assay on Micrococcus luteus FDA16, the “Minimum growth inhibitory concentration (mcg/ml) against bacteria Micrococcus luteus FDA16” value was 0.39 µg/mL. The “Minimum growth inhibitory concentration (mcg/ml) against bacteria Mycobacterium smegmatis ATCC607” value in assay [2] was 0.78 µg/mL.

Regarding `CCCCCCCCCCCCNC(=O)C1=CCN(C)C(C(OC2OC(CN)C(O)C2O)C2OC(n3ccc(=O)[nH]c3=O)C(O)C2O)C(=O)N1C` (stereo not drawn) [Compound II-G], in assay [1], the “Minimum growth inhibitory concentration (mcg/ml) against bacteria Staphylococcus aureus FDA209P” value was 3.13 µg/mL. Moreover, the “Minimum growth inhibitory concentration (mcg/ml) against bacteria Micrococcus luteus FDA16” value in the assay with Micrococcus luteus FDA16 came out at 0.39 µg/mL. Moreover, the “Minimum growth inhibitory concentration (mcg/ml) against bacteria Mycobacterium smegmatis ATCC607” value in assay [2] came out at 0.39 µg/mL.

In the case of `CCCCCCCCCCCCNC(=O)C1C(O)CN(C)C(C(OC2OC(CN)C(O)C2O)C2OC(n3ccc(=O)[nH]c3=O)C(O)C2O)C(=O)N1C` (stereo not drawn) [Compound V-G, caprazol-1′″-dodecyl-amide derivative], the “Minimum growth inhibitory concentration (mcg/ml) against bacteria Staphylococcus aureus FDA209P” value in assay [1] was 12.5 µg/mL. For the same compound, in the assay on Micrococcus luteus FDA16, the “Minimum growth inhibitory concentration (mcg/ml) against bacteria Micrococcus luteus FDA16” value amounted to 25 µg/mL. Besides, in assay [2], the “Minimum growth inhibitory concentration (mcg/ml) against bacteria Mycobacterium smegmatis ATCC607” value was found to be 6.25 µg/mL.

On to `CCCCCCNC(=O)C1=CCN(C)C(C(OC2OC(CN)C(O)C2O)C2OC(n3ccc(=O)[nH]c3=O)C(O)C2O)C(=O)N1C` (stereo not drawn) [Compound II-A], for which the “Minimum growth inhibitory concentration (mcg/ml) against bacteria Staphylococcus aureus FDA209P” value in assay [1] was more than 100 µg/mL. Besides, the “Minimum growth inhibitory concentration (mcg/ml) against bacteria Micrococcus luteus FDA16” value in the assay on Micrococcus luteus FDA16 amounted to 3.13 µg/mL. The “Minimum growth inhibitory concentration (mcg/ml) against bacteria Mycobacterium smegmatis ATCC607” value in assay [2] was determined as 100 µg/mL.

`CCCCCCCCCCCCCCCCNC(=O)C1=CCN(C)C(C(OC2OC(CN)C(O)C2O)C2OC(n3ccc(=O)[nH]c3=O)C(O)C2O)C(=O)N1C` (stereo not drawn) [Compound II-K]: the “Minimum growth inhibitory concentration (mcg/ml) against bacteria Staphylococcus aureus FDA209P” value in assay [1] worked out at 3.13 µg/mL. In addition, in the assay with Micrococcus luteus FDA16, the “Minimum growth inhibitory concentration (mcg/ml) against bacteria Micrococcus luteus FDA16” value came to 0.78 µg/mL. In addition, in assay [2], the “Minimum growth inhibitory concentration (mcg/ml) against bacteria Mycobacterium smegmatis ATCC607” value was determined as 3.13 µg/mL.

`CCCCCCCCNC(=O)C1C(OC(=O)CCCCCCCC)CN(C)C(C(OC2OC(CN)C(O)C2O)C2OC(n3ccc(=O)[nH]c3=O)C(O)C2O)C(=O)N1C` (stereo not drawn) [Compound VI-C]: the “Minimum growth inhibitory concentration (mcg/ml) against bacteria Staphylococcus aureus FDA209P” value in assay [1] was found to be 12.5 µg/mL. Moreover, the “Minimum growth inhibitory concentration (mcg/ml) against bacteria Micrococcus luteus FDA16” value in the assay with Micrococcus luteus FDA16 worked out at 6.25 µg/mL. In addition, the “Minimum growth inhibitory concentration (mcg/ml) against bacteria Mycobacterium smegmatis ATCC607” value in assay [2] came out at 6.25 µg/mL.

As to `CCCCCCCCCCc1ccc(NC(=O)C2=CCN(C)C(C(OC3OC(CN)C(O)C3O)C3OC(n4ccc(=O)[nH]c4=O)C(O)C3O)C(=O)N2C)cc1` (stereo not drawn) [Compound II-10], in assay [1], the “Minimum growth inhibitory concentration (mcg/ml) against bacteria Staphylococcus aureus FDA209P” value was found to be 3.13 µg/mL. In the assay on Micrococcus luteus FDA16, the “Minimum growth inhibitory concentration (mcg/ml) against bacteria Micrococcus luteus FDA16” value was less than 0.20 µg/mL. In addition, the “Minimum growth inhibitory concentration (mcg/ml) against bacteria Mycobacterium smegmatis ATCC607” value in assay [2] is 3.13 µg/mL.

Consider `CCCCCc1ccc(NC(=O)C2=CCN(C)C(C(OC3OC(CN)C(O)C3O)C3OC(n4ccc(=O)[nH]c4=O)C(O)C3O)C(=O)N2C)cc1` (stereo not drawn) [Compound II-5], for which, in assay [1], the “Minimum growth inhibitory concentration (mcg/ml) against bacteria Staphylococcus aureus FDA209P” value amounted to 3.13 µg/mL. The “Minimum growth inhibitory concentration (mcg/ml) against bacteria Micrococcus luteus FDA16” value in the assay on Micrococcus luteus FDA16 worked out at 0.2 µg/mL. Further, the “Minimum growth inhibitory concentration (mcg/ml) against bacteria Mycobacterium smegmatis ATCC607” value in assay [2] was found to be 3.13 µg/mL.

Take `CCCCCCCCCCCCCCCCCCCCNC(=O)C1=CCN(C)C(C(OC2OC(CN)C(O)C2O)C2OC(n3ccc(=O)[nH]c3=O)C(O)C2O)C(=O)N1C` (stereo not drawn) [Compound II-O]: the “Minimum growth inhibitory concentration (mcg/ml) against bacteria Staphylococcus aureus FDA209P” value in assay [1] was 3.13 µg/mL. The “Minimum growth inhibitory concentration (mcg/ml) against bacteria Micrococcus luteus FDA16” value in the assay on Micrococcus luteus FDA16 amounted to 3.13 µg/mL. Besides, the “Minimum growth inhibitory concentration (mcg/ml) against bacteria Mycobacterium smegmatis ATCC607” value in assay [2] is 25 µg/mL.
